Test results taken from patent US20150051203A1, “TRIAZOLE DERIVATIVES AS HSP90 INHIBITORS” (Synta Pharmaceuticals Corp., priority 2012, published 2015).
Like-named read-outs stand apart in the source and are kept apart here. Values belong to the molecule of their own block, whether it stands above or below them.

Tests used:
[1] = test system: c-Kit; assay: c-Kit degradation in HEL92.1.7 cells (FACS-based degradation assay); assay type: cell-based; conditions: treated about 18 h
Protocol: Two leukemia cell lines, HEL92.1.7 and Kasumi-1, were used for testing c-Kit degradation induced by Hsp90 inhibitors of the invention. The cells (3×10^5 per well) were treated with 17AAG (0.5 μM), or a compound of the invention for about 18 h. The cells were collected and centrifuged (SORVALL RT 6000D) at 1200 rpm for 5 min. The supernatants were discarded, and the cells were washed one time with 1×PBS. After centrifugation the cells were stained with FITC conjugated c-Kit antibody (MBL International, Cat# K0105-4) in […] 1×PBS at 4° C. for 1 h. The samples were read and analyzed with FACSCalibur flow cytometer (Becton Dicknson).
c-Kit, a tyrosine kinase receptor and one of the Hsp90 client proteins, was selected and used in a FACS-based degradation assay.

[2] = Exploratory small molecule PK study in rats; assay type: in vivo, male Sprague-Dawley rats; parameters: AUClast: unit not given here; conditions: rat; for half-life: male, Sprague-Dawley, plasma, read-out: T½ (converted); for F: PO 25 mg/Kg D5W vs IV 5 mg/Kg DPD
Protocol: PK studies were conducted in male Sprague-Dawley rats. One group was dosed by IV (n=2) and another group was dosed orally (n=3). Blood samples were collected in lithium heparin coated microfuge tubes at 5 (IV only), 15, 30 min, 1, 3, 4, 6, 8, 24 h post dose. Samples were then centrifuged under refrigerated conditions and plasma was collected for analysis.
A solvent-based protein precipitation procedure was used to measure the concentration of each compound in plasma and/or whole blood. Samples were analyzed with an Agilent 1100 HPLC (Santa Clara, Calif.) interfaced to an API 4000 tandem mass spectrometer (Applied Biosystems, Foster City, Calif.) using a Synergy, Hydro-RP column (4 μm, 2×50 mm; Phenomenex, Torrance, Calif.) at a flow rate of 0.5 ml/min. Mobile phase consisted of 10 mM ammonium acetate in water (A) and 10 mM ammonium acetate in 95/5 (v/v) methanol/water (B). Total run time was 5 min with the gradient elution. […] All standard curves were fit to a quadratic equation with a weighing factor of 1/(concentration)^2 to calculate compound concentrations.

[3] = test system: Her2; assay: Her2 degradation in BT-474 cells, ICW (LI-COR Odyssey imaging); assay type: cell-based, Human; conditions: BT474 cells, 24 hours
Protocol: All experiments were performed on day 1 after cell passage.
BT-474 cells were plated in the interior 60 wells of a 96 well black clear bottom plate (20,000 cells/well) in DMEM medium, with DMEM media in the surrounding 36 wells, and incubated at 37° C. with 5% CO2 overnight. On the second day, concentration response curve source plates were produced (10 point, 3-fold dilution of compounds in DMSO) followed by a 1:30 dilution in an intermediate dilution plate containing DMEM. Compound was transferred from the intermediate plate to the cell plate at a dilution of 1:10. The cells were incubated at 37° C. with 5% CO2 for 24 hours.
Cells were fixed in 4% phosphate buffered paraformaldehyde for 30 minutes at room temperature and then permeabilized by washing five times with 0.1% Triton X-100 in PBS for 5 minutes at room temperature on a shaker. Cells were blocked with Odyssey Blocking Buffer (LI-COR, #927-40000) on a shaker at room temperature for 1.5 hours followed by incubation with Her2 antibody (CST, #2165) diluted 1:400 in blocking buffer overnight on a shaker at 4° C. Cells were washed five times with 0.1% Tween-20 in PBS for 5 minutes at room temperature on a shaker and incubated with fluorescently labeled secondary antibody (LI-COR, #926-32211) diluted 1:1000 in blocking buffer, and DRAQ5 nuclear stain (Biostatus Limited, #DRAQ5) diluted 1:10,000, at room temperature on a shaker for 1 hour. Cells were washed 5 times with 0.1% Tween-20 in PBS for 5 minutes at room temperature on a shaker and imaged on a LI-COR Odyssey imaging station. The raw data was normalized to DRAQ5 and the Her2 EC50 were calculated using XLfit.

[4] = test system: Her2; assay: Fluorescent staining of Her2 on the surface of cells, FACS (BT474); assay type: cell-based, Human
Protocol: (§1) After treatment with a compound of the invention, cells are washed twice with 1×PBS/1% FBS, and then stained with anti-Her2-FITC (#340553, BD) for 30 min at 4° C. Cells are then washed three times in FACS buffer before the fixation in 0.5 ml 1% paraformadehyde. Data is acquired on a FACSCalibur system. Isotype-matched controls are used to establish the non-specific staining of samples and to set the fluorescent markers. A total 10,000 events are recorded from each sample. Data are analyzed by using CellQuest software (BD Biosciences).
as §1, with “paraformadehydrede.” for “paraformadehyde.”

- IC50 [1]: 500 nM
Structure (SMILES): Cc1n[nH]c2cc(O)c(-c3nnc(C(N)=O)n3-c3ccc(N4CCOCC4)cc3)cc12 [Compound 2, 5-(6-hydroxy-3-methyl-1H-indazol-5-yl)-4-(4-morpholinophenyl)-4H-1,2,4-triazole-3-carboxamide]

- IC50 [1]: 5000 nM
Structure (SMILES): Cc1n[nH]c2cc(O)c(-c3nnc(C(N)=O)n3-c3ccc4c(c3)OCO4)cc12 [Compound 4, 4-(benzo[d][1,3]dioxol-5-yl)-5-(6-hydroxy-3-methyl-1H-indazol-5-yl)-4H-1,2,4-triazole-3-carboxamide]

- IC50 [1]: 100 nM
Structure (SMILES): Cc1n[nH]c2cc(O)c(-c3nnc(C(=O)NC4CC4)n3-c3ccc(N4CCOCC4)cc3)cc12 [Compound 5, N-cyclopropyl-5-(6-hydroxy-3-methyl-1H-indazol-5-yl)-4-(4-morpholinophenyl)-4H-1,2,4-triazole-3-carboxamide]

- IC50 [1]: 20 nM
Structure (SMILES): CCc1n[nH]c2cc(O)c(-c3nnc(C(N)=O)n3-c3ccc(N4CCOCC4)cc3)cc12 [Compound 6, 5-(3-ethyl-6-hydroxy-1H-indazol-5-yl)-4-(4-morpholinophenyl)-4H-1,2,4-triazole-3-carboxamide]

- IC50 [1]: 36 nM
Structure (SMILES): CCCc1n[nH]c2cc(O)c(-c3nnc(C(=O)NC4CC4)n3-c3ccc(N4CCOCC4)cc3)cc12 [Compound 8, N-cyclopropyl-5-(6-hydroxy-3-propyl-1H-indazol-5-yl)-4-(4-morpholinophenyl)-4H-1,2,4-triazole-3-carboxamide]

- IC50 [1]: 40 nM
Structure (SMILES): CC(C)c1n[nH]c2cc(O)c(-c3nnc(C(N)=O)n3-c3ccc(N4CCOCC4)cc3)cc12 [Compound 9, 5-(6-hydroxy-3-isopropyl-1H-indazol-5-yl)-4-(4-morpholinophenyl)-4H-1,2,4-triazole-3-carboxamide]

- IC50 [1]: 7 nM
Structure (SMILES): CC(C)c1n[nH]c2cc(O)c(-c3nnc(C(=O)NC4CC4)n3-c3ccc(N4CCOCC4)cc3)cc12 [Compound 10, N-cyclopropyl-5-(6-hydroxy-3-isopropyl-1H-indazol-5-yl)-4-(4-morpholinophenyl)-4H-1,2,4-triazole-3-carboxamide]

- IC50 [1]: 200 nM
Structure (SMILES): CCc1n[nH]c2cc(O)c(-c3nnc(O)n3-c3ccc4c(ccn4C)c3)cc12 [Compound 29, 3-ethyl-5-(5-hydroxy-4-(1-methyl-1H-indol-5-yl)-4H-1,2,4-triazol-3-yl)-1H-indazol-6-ol]

- IC50 [1]: 300 nM
Structure (SMILES): CCc1n[nH]c2cc(O)c(-c3nnc(SCc4cccnc4)n3-c3ccc(N4CCOCC4)cc3)cc12 [Compound 30, 3-ethyl-5-(4-(4-morpholinophenyl)-5-(pyridin-3-ylmethylthio)-4H-1,2,4-triazol-3-yl)-1H-indazol-6-ol]

- IC50 [1]: > 20000 nM
Structure (SMILES): CCc1n[nH]c2cc(O)c(-c3nnc(O)n3-c3cccc(N(C)C)c3)cc12 [Compound 31, 5-(4-(3-(dimethylamino)phenyl)-5-hydroxy-4H-1,2,4-triazol-3-yl)-3-ethyl-1H-indazol-6-ol]

- IC50 [1]: 400 nM
Structure (SMILES): CCc1n[nH]c2cc(O)c(-c3nnc(O)n3-c3ccc(N4CCOCC4)cc3)cc12 [Compound 32, 3-ethyl-5-(5-hydroxy-4-(4-morpholinophenyl)-4H-1,2,4-triazol-3-yl)-1H-indazol-6-ol]

- IC50 [1]: 4000 nM
Structure (SMILES): CCc1n[nH]c2cc(O)c(-c3nnc(O)n3-c3ccc(N4CCOCC4)nc3)cc12 [Compound 33, 3-ethyl-5-(5-hydroxy-4-(6-morpholinopyridin-3-yl)-4H-1,2,4-triazol-3-yl)-1H-indazol-6-ol]

- IC50 [1]: > 20000 nM
Structure (SMILES): CCc1n[nH]c2cc(O)c(-c3nnc(O)n3-c3ccc4c(c3)CC(N3CCOCC3)C4)cc12 (stereo not shown) [Compound 35, 3-ethyl-5-(5-hydroxy-4-(2-morpholino-2,3-dihydro-1H-inden-5-yl)-4H-1,2,4-triazol-3-yl)-1H-indazol-6-ol]

- half-life ([2]; IV 5 mg/Kg, DPD): 1.7 h
- half-life ([2]; PO 25 mg/Kg, D5W): 4.3 h
- AUClast ([2]; IV 5 mg/Kg, DPD): 2.52
- F [2]: 197%
- AUClast ([2]; PO 25 mg/Kg, D5W): 24.4
Structure (SMILES): CCNC(=O)c1nnc(-c2cc3c(C(C)C)n[nH]c3cc2O)n1-c1ccc(CN2CCOCC2)cc1 [Compound 55, N-ethyl-5-(6-hydroxy-3-isopropyl-1H-indazol-5-yl)-4-(4-(morpholinomethyl)phenyl)-4H-1,2,4-triazole-3-carboxamide]

- EC50 [3]: 300 nM
- IC50 [1]: > 1000 nM
- EC50 [4]: > 1000 nM
Structure (SMILES): CN1CCN(c2ccc(-n3c(O)nnc3-c3cc4c(C5CCC5)n[nH]c4cc3O)cc2)CC1 [Compound 70, 3-cyclobutyl-5-(5-hydroxy-4-(4-(4-methylpiperazin-1-yl)phenyl)-4H-1,2,4-triazol-3-yl)-1H-indazol-6-ol]

- EC50 [3]: 30 nM
- IC50 [1]: 106 nM
- EC50 [4]: 119 nM
Structure (SMILES): Oc1cc2[nH]nc(C3CCCC3)c2cc1-c1nnc(O)n1-c1ccc(N2CCOCC2)cc1 [Compound 71, 3-cyclopentyl-5-(5-hydroxy-4-(4-morpholinophenyl)-4H-1,2,4-triazol-3-yl)-1H-indazol-6-ol]

- half-life ([2]; IV 5 mg/Kg, DPD): 1.1 h
- half-life ([2]; PO 25 mg/Kg, D5W): 2.1 h
- AUClast ([2]; IV 5 mg/Kg, DPD): 1.69
- F [2]: 7.57%
- AUClast ([2]; PO 25 mg/Kg, D5W): 0.61
Structure (SMILES): CC(C)c1n[nH]c2cc(O)c(-c3nnc(O)n3-c3ccc(N4CCN(C)CC4)cc3)cc12 [Compound 72, 5-(5-hydroxy-4-(4-(4-methylpiperazin-1-yl)phenyl)-4H-1,2,4-triazol-3-yl)-3-isopropyl-1H-indazol-6-ol]

- half-life ([2]; IV 5 mg/Kg, DPD): 1.5 h
- half-life ([2]; PO 25 mg/Kg, D5W): 4.2 h
- AUClast ([2]; IV 5 mg/Kg, DPD): 3.96
- F [2]: 13%
- AUClast ([2]; PO 25 mg/Kg, D5W): 2.55
Structure (SMILES): Oc1cc2[nH]nc(C3CCCC3)c2cc1-c1nnc(O)n1-c1ccc(CN2CCOCC2)cc1 [Compound 78, 3-cyclopentyl-5-(5-hydroxy-4-(4-(morpholinomethyl)phenyl)-4H-1,2,4-triazol-3-yl)-1H-indazol-6-ol]

- EC50 [3]: 20 nM
- IC50 [1]: 4 nM
- EC50 [4]: 18 nM
Structure (SMILES): CC(C)c1cc(-c2n[nH]c(=O)n2-c2ccc3c(ccn3C)c2)c(O)cc1O [ganetespib, reference compound]
